Molecules are shown by their SMILES.

The target in the assay is T1, TRPV1 (vanilloid receptor).
T1 construct: native receptor in hemocytes
The assay is described as follows: radioligand saturation binding, rapid filtration. The class given is cell-based, Mytilus galloprovincialis.

The Kd is a measure of binding affinity in units of concentration. A higher Kd goes with weaker binding. Turning to `C=C(C)[C@]12C[C@@H](C)[C@@]34O[C@](Cc5ccccc5)(O[C@@H]1[C@@H]3C=C(COC(=O)Cc1ccc(O)c(OC)c1)C[C@]1(O)C(=O)C(C)=C[C@@H]41)O2` [resiniferatoxin], the affinity, expressed as Kd, was 413 ± 168 pM.

Source of the values: PMC8125337 (International Journal of Molecular Sciences, 2021).
